Experiments:
[1] = tested on: HeLa cervical carcinoma cells; assay: Cellular cytotoxicity assay (Alamar Blue / Resazurin); format: cell-based; conditions: Homo sapiens, 48 hours incubation
Method: The anti-proliferative activity of the histone deacetylase inhibitory compounds as described herein, was evaluated with the HeLa cervical carcinoma cell line (ATCC CCL2) using the Alamar Blue (Resazurin) cell viability assay (O'Brien et al. Eur J Biochem 267, 5421-5426, 2000). Resazurin is reduced to the fluorescent resorufin by cellular dehydrogenase activity, correlating with viable, proliferating cells. Test compounds were dissolved as 10 mM solutions in dimethylsulfoxide (DMSO) and subsequently diluted in semi-logarithmic steps. HeLa cells were seeded into 96 well flat bottom plates at a density of 3000 cells per well in a volume of […] per well. 24 hours after seeding 1 μl each of the compound dilutions were added into each well of the 96 Well plate. Each compound dilution was tested as quadruplicates. Wells containing untreated control cells were filled with 200 μl DMEM medium containing 0.5% v:v DMSO. The cells were then incubated with the substances for 48 hours at 37° C. in a humidified atmosphere containing 5% carbon dioxide. To determine the viability of the cells, 20 μl of an Resazurin solution (Sigma; 90 mg/l) were added. After 4 hours incubation at 37° C. the fluorescence was measured at an […] of 544 nm and an emission of 590 nm. For the calculation of the cell viability the emission value from untreated cells was set as 100% viability and the emission rates of treated cells were set in relation to the values of untreated cells. Viabilities were expressed as % values. The corresponding IC50 values of the compounds for cytotoxic activity are determined from the concentration-effect curves by means of non-linear regression.

[2] = tested on: histone H3K23 hyperacetylation in HeLa cervical carcinoma cells; assay: Cellular histone H3 hyperacetylation assay; format: cell-based; conditions: Homo sapiens, 24 h with compound, read-out: Induction of histone H3K23 hyperacetylation EC50
Excerpt: To assess the cellular efficacy of an histone deacetylase inhibitor in vitro, an assay was set up in black clear-bottom 96-well plates and optimized for use on the Cellomics “ArrayScan II” platform for a quantitative calculation of […] acetylation. The protocol uses a polyclonal rabbit antibody, specifically binding to acetylated lysine 23 of human histone H3 on fixed cells with an Alexa Fluor 488 labeled goat anti rabbit-IgG used for counterstaining (Braunger et al. AACR annual conference 2003, Abstract 4556). 5×10^3 HeLa cervical carcinoma cells/well (ATCC CCL-2) in 200 μl Dulbecco's modified Eagle's medium (DMEM) containing 10% fetal calf serum were seeded at day 1 in Packard view plates and incubated for 24 h under standard cell culture conditions. On day 2, 2 μl test compound (100× final concentration) was added and incubation continued for further 24 h. On day 3, the culture medium was discarded and attached cells fixed for 15 min at room temperature by addition of 100 μl fixation buffer (3.7% v:v formaldehyde in phosphate buffered saline/PBS). After discarding the fixation buffer and one wash with PBS, cells were permeabilized at room temperature by addition of 100 μl/well permeabilization buffer (30.8 mM NaCl, 0.54 mM Na2HPO4, 0.31 mM KH2PO4, 5% v:v Triton X-100) for 15 min at room temperature. After discarding the permeabilization buffer and addition of 100 μl/well blocking solution (PBS with 0.05% v:v Tween 20 and 5% w:v milk powder) for 30 min at room temperature, the 1st antibody (anti-K23 histone H3 antibody, Cell Signaling No. 9674) in blocking solution (50 μl/well) was added. After incubation for 1 h at 37° C., the wells were washed 5 times for 5 min at room temperature with wash buffer (PBS with 0.05% v:v Tween 20) before addition of the 2nd antibody (goat-anti-rabbit Alexa Fluor 488; MoBiTec No. A-11008) in blocking solution (50 μl/well). After further incubation for 30 min at 37° C., wells were washed 5 times for 5 min at RT with 100 μl wash buffer at room temperature. Finally, 100 μl/well PBS were added and image analysis performed on the Cellomics “ArrayScan II” platform. For calculation of EC50 values, the nuclear fluorescence in cells treated with and without a reference HDAC inhibitor like SAHA or NVP-LBH-589 were taken as a positive and negative control, respectively. For EC50 determination, the percentage of positive cells was determined and EC50 calculation done from concentration-effect curves by means of non-linear regression.

Q: Which results are given for `CN(C)c1ccc(S(=O)(=O)n2ccc(/C=C/C(=O)Nc3ccccc3N)c2)cc1` [Compound 8, (E)-N-(2-Amino-phenyl)-3-[1-(4-dimethylamino-benzenesulfonyl)-1H-pyrrol-3-yl]-acrylamide]?
A: IC50 [1]: 0.8 to 21.6 µM; EC50 [2]: 2.15 to 51.3 µM

Q: For `CN(CCc1cc2ccccc2[nH]1)Cc1ccc(S(=O)(=O)n2ccc(/C=C/C(=O)NO)c2)cc1` [Compound 9, (E)-N-Hydroxy-3-(1-[4-(([2-(1H-indol-2-yl)-ethyl]-methyl-amino)-methyl)-benzenesulfonyl]-1H-pyrrol-3-yl)-acrylamide], which IC50 [1] is on record?
A: 0.07 to 5 µM

Q: And the EC50 [2]?
A: 2.15 to 51.3 µM

Q: With `O=C(/C=C/c1ccn(S(=O)(=O)c2ccc(-c3cn[nH]c3)cc2)c1)NO` [Compound 19, (E)-N-Hydroxy-3-{1-[4-(1H-pyrazol-4-yl)-benzenesulfonyl]-1H-pyrrol-3-yl}-acrylamide] as the molecule, how does the IC50 [1] read?
A: 0.07 to 5 µM

Q: And the melting point?
A: 203.8 to 211.9 °C

Q: Which results are given for `O=C(/C=C/c1ccn(S(=O)(=O)c2ccc(-n3cccn3)cc2)c1)NO` [Compound 25, (E)-N-Hydroxy-3-[1-(4-pyrazol-1-yl-benzenesulfonyl)-1H-pyrrol-3-yl]-acrylamide]?
A: IC50 [1]: 0.07 to 5 µM; melting point: 160.7 to 166.6 °C

Q: Which IC50 [1] does the source give for `Nc1ccccc1NC(=O)C=Cc1ccn(S(=O)(=O)c2ccc(-c3ccccc3)cc2)c1` [Compound 7, (E)-N-(2-Amino-phenyl)-3-[1-(biphenyl-4-sulfonyl)-1H-1-pyrrol-3-yl]-acrylamide] here?
A: 0.8 to 21.6 µM

Q: What about the EC50 [2] of the same molecule?
A: 2.15 to 51.3 µM

Q: What does the source list for `Nc1ccccc1NC(=O)C=Cc1ccn(S(=O)(=O)c2ccc(-c3cn[nH]c3)cc2)c1` [Compound 22, (E)-N-(2-Amino-phenyl)-3-{1-[4-(1H-1-pyrazol-4-yl)-benzenesulfonyl]-1H-pyrrol-3-yl}-acrylamide]?
A: IC50 [1]: 0.07 to 5 µM; melting point: 232.3 to 240.9 °C

Q: Which IC50 [1] does the source give for `O=C(/C=C/c1ccn(S(=O)(=O)c2ccc(CNCc3ccncc3)cc2)c1)NO` [Compound 16, (E)-N-Hydroxy-3-[1-(4-{[(pyridin-4-ylmethyl)-amino]-methyl}-benzenesulfonyl)-1H-pyrrol-3-yl]-acrylamide] here?
A: 0.07 to 5 µM

Q: Which results are given for `CN(C)Cc1ccc(S(=O)(=O)n2ccc(/C=C/C(=O)NO)c2)cc1` [Compound 10, (E)-3-[1-(4-Dimethylaminomethyl-benzenesulfonyl)-1H-pyrrol-3-yl]-N-hydroxy-acrylamide]?
A: IC50 [1]: 0.07 to 5 µM; EC50 [2]: 2.15 to 51.3 µM

Q: For `O=C(/C=C/c1ccn(S(=O)(=O)c2ccc(CN3CCOCC3)cc2)c1)NO` [Compound 27, (E)-N-Hydroxy-3-[1-(4-morpholin-4-ylmethyl-benzenesulfonyl)-1H-pyrrol-3-yl]acrylamide], which IC50 [1] is on record?
A: 0.07 to 5 µM

Q: And the melting point?
A: 168 to 170 °C

Q: And the EC50 [2]?
A: 2.15 to 51.3 µM

Q: What does the source list for `Nc1ccccc1NC(=O)/C=C/c1ccn(S(=O)(=O)c2ccc(-c3cccnc3)cc2)c1` [Compound 21, (E)-N-(2-Amino-phenyl)-3-[1-(4-pyridin-3-yl-benzenesulfonyl)-1H-pyrrol-3-yl]-acrylamide]?
A: IC50 [1]: 0.07 to 5 µM; melting point: 199.7 to 202.3 °C

Q: With `O=C(/C=C/c1ccn(S(=O)(=O)c2ccc(CNCc3cccnc3)cc2)c1)NO` [Compound 11, (E)-N-Hydroxy-3-[1-(4-{[(pyridin-3-ylmethyl)-amino]-methyl}-benzenesulfonyl)-1H-pyrrol-3-yl]-acrylamide] as the molecule, how does the IC50 [1] read?
A: 0.07 to 5 µM

Q: With `Nc1ccccc1NC(=O)/C=C/c1ccn(S(=O)(=O)c2ccc(-c3ccccn3)s2)c1` [Compound 26, (E)-N-(2-Amino-phenyl)-3-[1-(5-pyridin-2-yl-thiophene-2-sulfonyl)-1H-pyrrol-3-yl]-acrylamide] as the molecule, how does the IC50 [1] read?
A: 0.07 to 5 µM

Q: Which results are given for `O=C(/C=C/c1ccn(S(=O)(=O)c2cccc(-c3ccccc3)c2)c1)NO` [Compound 23, (E)-3-[1-(Biphenyl-3-sulfonyl)-1H-pyrrol-3-yl]-N-hydroxy-acrylamide]?
A: IC50 [1]: 0.07 to 5 µM; melting point: 114 to 159.4 °C

Q: For `O=C(/C=C/c1ccn(S(=O)(=O)Cc2ccccc2)c1)NO` [Compound 2, N-Hydroxy-3-(1-phenylmethanesulfonyl-1H-1-pyrrol-3-yl)-acrylamide], which IC50 [1] is on record?
A: 0.8 to 21.6 µM

Q: And the EC50 [2]?
A: 2.15 to 51.3 µM

Q: For `O=C(/C=C/c1ccn(S(=O)(=O)c2ccc(-c3ccccc3)cc2)c1)NO` [Compound 3, (E)-3-[1-(Biphenyl-4-sulfonyl)-1H-pyrrol-3-yl]-N-hydroxy-acrylamide], which IC50 [1] is on record?
A: 0.8 to 21.6 µM

Q: What about the EC50 [2] of the same molecule?
A: 2.15 to 51.3 µM

Q: For `Cc1ccc(S(=O)(=O)n2ccc(C=CC(=O)NO)c2)cc1` [Compound 1, (E)-N-Hydroxy-3-[1-(toluene-4-sulfonyl)-1-H-pyrrol-3-yl]-acrylamide], which IC50 [1] is on record?
A: 0.8 to 21.6 µM

Q: What about the EC50 [2] of the same molecule?
A: 2.15 to 51.3 µM

Q: Which IC50 [1] does the source give for `O=C(/C=C/c1ccn(S(=O)(=O)c2ccc(-c3ccncc3)cc2)c1)NO` [Compound 18, (E)-N-Hydroxy-3-[1-(4-pyridin-4-yl-benzenesulfonyl)-1H-pyrrol-3-yl]-acrylamide] here?
A: 0.07 to 5 µM

Q: And the melting point?
A: 219.3 to 221.4 °C

Q: Which results are given for `Nc1ccccc1NC(=O)/C=C/c1ccn(S(=O)(=O)c2ccc(-c3ccncc3)cc2)c1` [Compound 20, (E)-N-(2-Amino-phenyl)-3-[1-(4-pyridin-4-yl-benzenesulfonyl)-1H-pyrrol-3-yl]-acrylamide]?
A: IC50 [1]: 0.07 to 5 µM; melting point: 244.2 to 246.5 °C

Q: For `O=C(/C=C/c1ccn(S(=O)(=O)c2ccc(CNCc3c[nH]c4ccccc34)cc2)c1)NO` [Compound 12, (E)-N-Hydroxy-3-[1-(4-{[(1H-indol-3-ylmethyl)-amino]-methyl}-benzenesulfonyl)-1H-pyrrol-3-yl]-acrylamide], which IC50 [1] is on record?
A: 0.07 to 5 µM

Q: For `CC(C)CNCc1ccc(S(=O)(=O)n2ccc(/C=C/C(=O)NO)c2)cc1` [Compound 14, (E)-N-Hydroxy-3-{1-[4-(isobutylamino-methyl)-benzenesulfonyl]-1H-pyrrol-3-yl}-acrylamide], which IC50 [1] is on record?
A: 0.07 to 5 µM

Q: With `O=C(/C=C/c1ccn(S(=O)(=O)c2ccc(CNCc3ccc4[nH]ccc4c3)cc2)c1)NO` [Compound 15, (E)-N-Hydroxy-3-[1-(4-{[(1H-indol-5-ylmethyl)-amino]-methyl}-benzenesulfonyl)-1H-pyrrol-3-yl]-acrylamide] as the molecule, how does the IC50 [1] read?
A: 0.07 to 5 µM

Q: With `NCc1ccc(S(=O)(=O)n2ccc(/C=C/C(=O)NO)c2)cc1` [Compound 17, (E)-3-[1-(4-Aminomethyl-benzenesulfonyl)-1H-pyrrol-3-yl]-N-hydroxy-acrylamide] as the molecule, how does the IC50 [1] read?
A: 0.07 to 5 µM

Q: And the melting point?
A: 227 to 228.6 °C

Q: Which IC50 [1] does the source give for `O=C(/C=C/c1ccn(S(=O)(=O)c2ccc(CN(CCO)CCc3cc4ccccc4[nH]3)cc2)c1)NO` [Compound 28, (E)-N-Hydroxy-3-{1-[4-({(2-hydroxy-ethyl)-[2-(1H-indol-2-yl)-ethyl]-amino}-methyl)-benzenesulfonyl]-1H-pyrrol-3-yl}-acrylamide] here?
A: 0.07 to 5 µM

Q: With `O=C(/C=C/c1ccn(S(=O)(=O)c2ccc(-c3ccccn3)s2)c1)NO` [Compound 24, (E)-N-Hydroxy-3-[1-(5-pyridin-2-yl-thiophene-2-sulfonyl)-1H-pyrrol-3-yl]-acrylamide] as the molecule, how does the IC50 [1] read?
A: 0.07 to 5 µM

Q: For `O=C(/C=C/c1ccn(S(=O)(=O)c2ccc(CNCc3ccccc3)cc2)c1)NO` [Compound 13, (E)-3-{1-[4-(Benzylamino-methyl)-benzenesulfonyl]-1H-pyrrol-3-yl}-N-hydroxy-acrylamide], which IC50 [1] is on record?
A: 0.07 to 5 µM

Q: With `CN(C)c1ccc(S(=O)(=O)n2ccc(C=CC(=O)NO)c2)cc1` [Compound 4, (E)-3-[1-(4-Dimethylamino-benzenesulfonyl)-1H-1-pyrrol-3-yl]-N-hydroxy-acrylamide] as the molecule, how does the IC50 [1] read?
A: 0.8 to 21.6 µM

Q: And the EC50 [2]?
A: 2.15 to 51.3 µM

Source: patent US8067615B2, “Sulphonylpyrroles” (4SC AG, priority 2004, dated 2011)
